Patent publication EP0908457B1, “3-(1,2-benzisothiazol- and isoxazol-5-Y1)-2,4(1H,3H)-pyrimidinedione or thione and 3-(1,2-benzisothiazol- and isoxazol-5-y1)-4(3H)-pyrimidinone or thione herbicidal agents” (BASF AKTIENGESELLSCHAFT, priority 1997, dated 1999)
Where a name gives a salt, the structure may show the parent alone.

Assays:
Type in all cases: in vivo
[1] = system: Echinochloa oryzoides (Ard.) Fritsch.; experiment: Preemergence weed control under flooded paddy conditions, ECHORC (Watergrass (Calif.)); conditions: flooded paddy; for ECHORC: preemergence weeds, herbicidal effect rating 0-9, three to four weeks after treatment; for herbicidal effect rating, ECHORC: preemergence
Cyperus iria = experiment: Preemergence weed control under flooded paddy conditions, CYPIR (Rice Flatsedge); conditions: flooded paddy; for CYPIR: preemergence weeds, herbicidal effect rating 0-9, three to four weeks after treatment; for herbicidal effect rating, CYPIR: preemergence
[2] = system: Cyperus serotinus, Rottb.; experiment: Preemergence weed control under flooded paddy conditions, CYPSE (Flatsedge); conditions: for CYPSE: preemergence weeds, herbicidal effect rating 0-9, three to four weeks after treatment; for herbicidal effect rating, CYPSE: preemergence
[3] = system: Monochoria vaginalis, Presl.; experiment: Preemergence weed control under flooded paddy conditions, MOOVA (Monochoria); conditions: flooded paddy; for MOOVA: preemergence weeds, herbicidal effect rating 0-9, three to four weeks after treatment; for herbicidal effect rating, MOOVA: preemergence
Sagittaria pygmaea, L. = experiment: Preemergence weed control under flooded paddy conditions, SAGPY (Arrowhead (Pygmaea)); conditions: flooded paddy; for SAGPY: preemergence weeds, herbicidal effect rating 0-9, three to four weeks after treatment; for herbicidal effect rating, SAGPY: preemergence
[4] = Rate 0.0320 kg/ha, rated 3-4 weeks after treatment
[5] = Rate 0.0620 kg/ha, rated 3-4 weeks after treatment
[6] = Rate 0.1250 kg/ha, rated 3-4 weeks after treatment
[7] = Rate 0.2500 kg/ha, rated 3-4 weeks after treatment
[8] = Rate 0.0320 kg/ha, rated three to four weeks after treatment
[9] = Rate 0.0620 kg/ha, rated three to four weeks after treatment
[10] = Rate 0.1250 kg/ha, rated three to four weeks after treatment
[11] = Rate 0.2500 kg/ha, rated three to four weeks after treatment

## 2,4(1H,3H)-Pyrimidinedione, 1-methyl-3-[(2-methylbutyryl)-1,2-benzisothiazol-5-yl]-6-(trifluoromethyl)- [Example 433]
[1]; 0.0320 kg/ha
  ECHORC: 8.0
[1]; 0.0620 kg/ha
  ECHORC: 9.0
[1]; 0.1250 kg/ha
  ECHORC: 9.0
[1]; 0.2500 kg/ha
  ECHORC: 9.0
Cyperus iria; 0.0320 kg/ha
  CYPIR: 5.5
Cyperus iria; 0.0620 kg/ha
  CYPIR: 8.5
Cyperus iria; 0.1250 kg/ha
  CYPIR: 9.0
Cyperus iria; 0.2500 kg/ha
  CYPIR: 9.0
[2]; 0.0320 kg/ha
  CYPSE: 0.0
[2]; 0.0620 kg/ha
  CYPSE: 6.0
[2]; 0.1250 kg/ha
  CYPSE: 7.5
[2]; 0.2500 kg/ha
  CYPSE: 7.5
[3]; 0.0320 kg/ha
  MOOVA: 8.5
[3]; 0.0620 kg/ha
  MOOVA: 9.0
[3]; 0.1250 kg/ha
  MOOVA: 9.0
[3]; 0.2500 kg/ha
  MOOVA: 9.0
Sagittaria pygmaea, L.; 0.0320 kg/ha
  SAGPY: 2.0
Sagittaria pygmaea, L.; 0.0620 kg/ha
  SAGPY: 4.5
Sagittaria pygmaea, L.; 0.1250 kg/ha
  SAGPY: 6.0
Sagittaria pygmaea, L.; 0.2500 kg/ha
  SAGPY: 7.0

## Cc1ccc(OCC(=O)OCC2CCOC2)c(-c2nsc3ccc(-n4c(=O)cc(C(F)(F)F)n(C)c4=O)cc23)c1 (racemic) [Example 535, Acetic acid, {{2-{5-[3,6-dihydro-3-methyl-2,6-dioxo-4-(trifluoromethyl)-1(2H)-pyrimidinyl]-1,2-benzisothiazol-3-yl}-p-tolyl}oxy}-, (tetrahydro-3-furyl)methyl ester, DL-]
[1]; [4]
  herbicidal effect rating, ECHORC: 0.0
[1]; [5]
  herbicidal effect rating, ECHORC: 3.0
[1]; [6]
  herbicidal effect rating, ECHORC: 3.0
[1]; [7]
  herbicidal effect rating, ECHORC: 4.0
Cyperus iria; [4]
  herbicidal effect rating, CYPIR: 0.0
Cyperus iria; [5]
  herbicidal effect rating, CYPIR: 6.0
Cyperus iria; [6]
  herbicidal effect rating, CYPIR: 9.0
Cyperus iria; [7]
  herbicidal effect rating, CYPIR: 9.0
[2]; [4]
  herbicidal effect rating, CYPSE: 0.0
[2]; [5]
  herbicidal effect rating, CYPSE: 3.0
[2]; [6]
  herbicidal effect rating, CYPSE: 5.0
[2]; [7]
  herbicidal effect rating, CYPSE: 5.0
[3]; [4]
  herbicidal effect rating, MOOVA: 6.0
[3]; [5]
  herbicidal effect rating, MOOVA: 9.0
[3]; [6]
  herbicidal effect rating, MOOVA: 9.0
[3]; [7]
  herbicidal effect rating, MOOVA: 9.0
Sagittaria pygmaea, L.; [4]
  herbicidal effect rating, SAGPY: 0.0
Sagittaria pygmaea, L.; [5]
  herbicidal effect rating, SAGPY: 0.0
Sagittaria pygmaea, L.; [6]
  herbicidal effect rating, SAGPY: 3.0
Sagittaria pygmaea, L.; [7]
  herbicidal effect rating, SAGPY: 3.0

## Cn1c(C(F)(F)F)cc(=O)n(-c2ccc3snc(CS(=O)(=O)c4ccccc4)c3c2)c1=O [Example 393, 2,4(1H,3H)-Pyrimidinedione, 1-methyl-3-{3-[(phenylsulfonyl)methyl]-1,2-benzisothiazol-5-yl}-6-(trifluoromethyl)-]
[1]; [8]
  herbicidal effect rating, ECHORC: 2.0
[1]; [9]
  herbicidal effect rating, ECHORC: 4.0
[1]; [10]
  herbicidal effect rating, ECHORC: 4.0
[1]; [11]
  herbicidal effect rating, ECHORC: 9.0
Cyperus iria; [8]
  herbicidal effect rating, CYPIR: 0.0
Cyperus iria; [9]
  herbicidal effect rating, CYPIR: 3.0
Cyperus iria; [10]
  herbicidal effect rating, CYPIR: 3.0
Cyperus iria; [11]
  herbicidal effect rating, CYPIR: 6.0
[2]; [8]
  herbicidal effect rating, CYPSE: 0.0
[2]; [9]
  herbicidal effect rating, CYPSE: 0.0
[2]; [10]
  herbicidal effect rating, CYPSE: 3.0
[2]; [11]
  herbicidal effect rating, CYPSE: 6.0
[3]; [8]
  herbicidal effect rating, MOOVA: 7.0
[3]; [9]
  herbicidal effect rating, MOOVA: 8.0
[3]; [10]
  herbicidal effect rating, MOOVA: 8.0
[3]; [11]
  herbicidal effect rating, MOOVA: 9.0
Sagittaria pygmaea, L.; [8]
  herbicidal effect rating, SAGPY: 0.0
Sagittaria pygmaea, L.; [10]
  herbicidal effect rating, SAGPY: 3.0
Sagittaria pygmaea, L.; [11]
  herbicidal effect rating, SAGPY: 4.0

## Cn1c(C(F)(F)F)cc(=O)n(-c2ccc3snc(C(=O)NOS(=O)(=O)O)c3c2)c1=O [Example 417, 1,2-Benzisothiazole-3-carbohydroxamic acid, 5-[3,6-dihydro-3-methyl-2,6-dioxo-4-(trifluoromethyl)-1(2H)-pyrimidinyl]-, hydrogen sulfate (ester)]
[1]; 0.0320 kg/ha
  ECHORC: 0.0
[1]; 0.0620 kg/ha
  ECHORC: 0.0
[1]; 0.1250 kg/ha
  ECHORC: 3.0
[1]; 0.2500 kg/ha
  ECHORC: 3.0
Cyperus iria; 0.0320 kg/ha
  CYPIR: 4.0
Cyperus iria; 0.0620 kg/ha
  CYPIR: 4.0
Cyperus iria; 0.1250 kg/ha
  CYPIR: 5.0
Cyperus iria; 0.2500 kg/ha
  CYPIR: 6.0
[2]; 0.1250 kg/ha
  CYPSE: 3.0
[3]; 0.0320 kg/ha
  MOOVA: 6.0
[3]; 0.0620 kg/ha
  MOOVA: 6.0
[3]; 0.1250 kg/ha
  MOOVA: 9.0
[3]; 0.2500 kg/ha
  MOOVA: 9.0
